These results are taken from patent US10336751B2, “Tricyclic 4-pyridone-3-carboxylic acid derivatives for the treatment and prophylaxis of hepatitis B virus infection” (priority 2016, dated 2019).

Structures are written as SMILES.

What is called IC50 is the point on the concentration scale where inhibition reaches its midpoint.

The subject of this test is HBsAg. As to the kind of experiment: HBsAg assay (CLIA) in HepG2.2.15 cells. In kind it is cell-based, HBV. Conditions: Hepatitis B virus, HepG2.2.15, read-out: IC50 (HBsAg secretion). The method, then:
HepG2.2.15 cells (Acs et al. Proc Natl Acad Sci USA, 84, (1987), 4641-4), a constitutively HBV-expressing cell line were cultured in DMEM+Glutamax-I medium (Invitrogen, Carlsbad, Calif., USA), supplemented with 10% fetal bovine serum (Invitrogen) and G418 (Invitrogen) at a final concentration of 200 mg/L and maintained in 5% CO2 at 37° C.
HepG2.2.15 cells were seeded in duplicate into white, 96-well plates at 1.5×10^4 cells/well. The cells were treated with a three-fold serial dilution series of the compounds in DMSO. The final DMSO concentration in all wells was 1% and DMSO was used as no drug control.
The HBsAg chemiluminescence immunoassay (CLIA) kit (Autobio Diagnostics Co., Zhengzhou, China, Catalog number: CL0310-2) was used to measure the levels of secreted HBV antigens semi-quantitatively. For the detection 50 μL/well culture supernatant was used and HBsAg was quantified using HBsAg chemiluminescence immunoassay (CLIA) kit (Autobio Diagnostics Co., Zhengzhou, China, Catalog number: CL0310-2), 50 μL of the supernatant was transferred to the CLIA assay plate and 50 μL of enzyme conjugate reagent was added into each well. The plates were sealed and gently agitated for 1 hour at room temperature. The supernatant-enzyme-mixture was discarded and wells were washed 6 times with 300 μL of PBS. The residual liquid was removed by plating the CLIA plate […] on absorbent tissue paper. 25 μL of substrates A and B were added to each well. Luminance was measured using a luminometer (Mithras LB 940 Multimode Microplate Reader) after 10 minutes incubation, Dose-response curves were generated and the IC50 value was extrapolated by using the E-WorkBook Suite (ID Business Solutions Ltd., Guildford, UK). The IC50 was defined as the compound concentration (or conditioned media log dilution) at which HBsAg secretion was reduced by 50% compared to the no drug control.
The compounds of the present invention were tested for their capacity to inhibit HBsAg as described herein. The Examples were tested in the above assay and found to have IC50 of about 0.001 μM to about 50.0 μM.
For `COc1cc2c(cc1OC)-c1cc(=O)c(C(=O)O)cn1CCC2` [Example 1, 10,11-Dimethoxy-2-oxo-7,8-dihydro-6H-pyrido[2,1-a][2]benzazepine-3-carboxylic acid], the half-maximal inhibitory concentration (IC50) amounted to 35.4 µM. For the compound `CCC1CCc2cc(OCc3ccccc3)c(OC)cc2-c2cc(=O)c(C(=O)O)cn21` (stereo not shown) [Example 2, 10-Benzyloxy-6-ethyl-11-methoxy-2-oxo-7,8-dihydro-6H-pyrido[2,1-a][2]benzazepine-3-carboxylic acid], the IC50 came to 1.08 µM. The result for `CCC1CCc2cc(OCCCOC)c(OC)cc2-c2cc(=O)c(C(=O)O)cn21` (stereo not shown) [Example 3, 6-Ethyl-11-methoxy-10-(3-methoxypropoxy)-2-oxo-7,8-dihydro-6H-pyrido[2,1-a][2]benzazepine-3-carboxylic acid] reads 0.419 µM. The result for `CCC1CCc2cc(OCCCCCCNC(=O)OC(C)(C)C)c(OC)cc2-c2cc(=O)c(C(=O)O)cn21` (stereo not shown) [Example 4, 10-[6-(Tert-butoxycarbonylamino)hexoxy]-6-ethyl-11-methoxy-2-oxo-7,8-dihydro-6H-pyrido[2,1-a][2]benzazepine-3-carboxylic acid] reads 0.619 µM; that for `CCC1CCc2cc(OCCCCCCN)c(OC)cc2-c2cc(=O)c(C(=O)O)cn21` (stereo not shown) [Example 5, 10-(6-Aminohexoxy)-6-ethyl-11-methoxy-2-oxo-7,8-dihydro-6H-pyrido[2,1-a][2]benzazepine-3-carboxylic acid], 0.602 µM; that for `CCC1CCc2cc(OCCCCCCNC(C)=O)c(OC)cc2-c2cc(=O)c(C(=O)O)cn21` (stereo not shown) [Example 6, 10-(6-Acetamidohexoxy)-6-ethyl-11-methoxy-2-oxo-7,8-dihydro-6H-pyrido[2,1-a][2]benzazepine-3-carboxylic acid], 12.4 µM. The same measure for `CCC1CCc2cc(OCCCCCCNS(C)(=O)=O)c(OC)cc2-c2cc(=O)c(C(=O)O)cn21` (stereo not shown) [Example 7, 6-Ethyl-10-[6-(methanesulfonamido)hexoxy]-11-methoxy-2-oxo-7,8-dihydro-6H-pyrido[2,1-a][2]benzazepine-3-carboxylic acid]: 5.87 µM; for `CCC1CCc2cc(OCCCSC)c(OC)cc2-c2cc(=O)c(C(=O)O)cn21` (stereo not shown) [Example 8, 6-Ethyl-11-methoxy-10-(3-methylsulfanylpropoxy)-2-oxo-7,8-dihydro-6H-pyrido[2,1-a][2]benzazepine-3-carboxylic acid]: 1.89 µM; for `CCC1CCc2cc(OCCCS(C)(=O)=O)c(OC)cc2-c2cc(=O)c(C(=O)O)cn21` (stereo not shown) [Example 9, 6-Ethyl-11-methoxy-10-(3-methylsulfonylpropoxy)-2-oxo-7,8-dihydro-6H-pyrido[2,1-a][2]benzazepine-3-carboxylic acid]: 1.07 µM. Consider `CCC1CCc2cc(OCC(F)(F)F)c(OC)cc2-c2cc(=O)c(C(=O)O)cn21` (stereo not shown) [Example 10, 6-Ethyl-11-methoxy-2-oxo-10-(2,2,2-trifluoroethoxy)-7,8-dihydro-6H-pyrido[2,1-a][2]benzazepine-3-carboxylic acid], for which the concentration for half-maximal inhibition (IC50) is 0.558 µM.
